According to PMC5849211 (Chemical Science, 2017):

Test system: Saos-2 cells
Assay: MTT assay, Saos-2 cells
Assay type: cell-based, human
Conditions: 0.5 mM levamisole, 3 h + 24 h, n = 3

## c1ccc([C@H]2CN3CCSC3=N2)cc1 [levamisole]
  cell viability, Saos-2, levamisole alone: no obvious effect on the cell viability alone
